Measured values as given in publication PMC11676817, “Antiproliferative and Morphological Analysis Triggered by Drugs Contained in the Medicines for Malaria Venture COVID-Box Against Toxoplasma gondii Tachyzoites” (Microorganisms, 2024).
“And” between values parts separate entries of the source, which are not always exact repeats. Equal values may be shown once. Read-outs that look alike come from different tables or passages of the source.

Assays:
[1] = set-up: method as in Table S3 supplementary ref 30; conditions: Rat and Monkey; ref Table S3 supplementary ref 30; cited from earlier work
[2] = cited from earlier work
[3] = Rat, cited from earlier work; for Cmax: read-out: Plasma concentration (Cmax)
[4] = cited from earlier work; remark: listed apart in the source
[5] = test system: Toxoplasma gondii tachyzoites of the RH strain; assay: microbe, parasite or virus in culture; conditions: 168 h
[6] = test system: Toxoplasma gondii tachyzoites of the RH strain; assay: microbe, parasite or virus in culture; format: cell-based; conditions: for activity at […]: 250 nM; for activity at 0.5 µM: 500 nM
T. gondii tachyzoites [7] = assay: Transmission electron microscopy of treated tachyzoites; format: cell-based, Toxoplasma gondii
Procedure: NHDF cultures infected with T. gondii were treated with compounds and fixed with 2.5% glutaraldehyde (EM Grade—Ted Pella Inc., Redding, CA, USA) in 0.1 M sodium cacodylate buffer pH 7.4 (Ted Pella Inc.). Cells were post-fixed with 1% osmium tetroxide, 1.25% potassium ferrocyanide, and 5 mM CaCl2, in 0.1 M sodium cacodylate buffer (pH 7.4). The sample fixation and processing for microscopy were performed as previously described. Samples were dehydrated in alcohol solutions of increasing concentrations (35–100%) and embedded in epoxy resin (Polybed 812, Polysciences). Ultrathin sections were collected in copper grids 300 mesh (Ted Pella Inc.), stained with uranyl acetate and lead citrate, and then observed in a Fei TecNai G2 120 kV Spirit Electron Microscope (FEI Company, Eindhoven, The Netherlands).

[8] = test system: Toxoplasma gondii tachyzoites of the RH strain; conditions: 7 days of treatment
T. gondii tachyzoites [9] = conditions: read-out: IC50 against T. gondii, cited from earlier work
[10] = Rat; ref Table S3 supplementary ref 3; cited from earlier work
T. gondii tachyzoites [11] = assay: Immunofluorescence microscopy of treated tachyzoites (aberrant cell division, rhoptry morphology); conditions: 24 h; for Effect on tachyzoite morphology and cell division (fluorescence microscopy): 125 nM; for Vacuoles with aberrant parasites: […] (250 nM)
Procedure: Rabbit anti-IMC1 (1:1000) and anti-ARO (1:1000) (kindly provided by Dr. Dominique Soldati, Universite de Geneve, Switzerland) were used to label the mother cell and daughter cell pellicles throughout the endodyogeny process and rhoptries, respectively. Mouse anti-SAG1 (1:200; kindly donated by Dr. Tiago Mineo, Universidade Federal de Uberlândia) was used to label the parasite plasma membrane. DAPI (2 µg/mL; Sigma-Aldrich, St. Louis, MO, USA) was used to label the DNA. […] After labeling with antibodies, the coverslips were mounted onto slides using Prolong gold (Life Technologies), and samples were examined on a Zeiss Axio Observer Z1 microscope (Baden-Württemberg, Germany) or Olympus BX60 microscope (Shinjuku City, Tokyo, Japan).

[12] = estimated; ref [66]; cited from earlier work
[13] = Cytotoxicity assay in NHDF cells (MTS); conditions: human
in vitro = conditions: human
[14] = cited from earlier work; remark: listed apart in the source
[15] = cited from earlier work; remark: listed apart in the source
[16] = in vivo; cited from earlier work
[17] = set-up: method as in Table S3 supplementary ref 2; conditions: Mouse and Rat; ref Table S3 supplementary ref 2; cited from earlier work
T. gondii = conditions: in vivo administration, murine model of chronic toxoplasmosis; ref [23],[24]; cited from earlier work
[18] = Human, ref Table S3 supplementary refs 1, 4, 8, 11, 13, 15, 17, 18, 19, 23, 31
[19] = published in vivo studies, ref Table S3
[20] = NHDF, read-out: IC50 (μM) in Tachyzoites, RH strain in NHDF cells, plaque assay, 7 days of treatment
[21] = read-out: IC50 (μM) in Tachyzoites, RH strain in NHDF cells, plaque assay
[22] = Toxoplasma gondii, 24 h of treatment, read-out: Proliferation index (%)
[23] = Toxoplasma gondii, 1000 nM, 24 h of treatment, read-out: Proliferation index (%)
[24] = read-out: Plasma concentration (Cmax), Human, ref Table S3 supplementary refs 1, 4, 8, 11, 13, 15, 17, 18, 19, 23
[25] = read-out: IC50 against T. gondii proliferation, RH strain, 7 days of treatment

Question: Which “Does it cross the blood-brain barrier or is found in the brain?” value [1] does the source give for CNC(=O)c1cc(Oc2ccc(NC(=O)Nc3ccc(Cl)c(C(F)(F)F)c3)cc2)ccn1 [Sorafenib] here?
Answer: Yes

Question: What about the “Plasma concentration (Cmax)” value [2, 18] of the same compound?
Answer: 1001.3 ng/mL

Question: What about the Cmax ([2]; read-out: Plasma concentration (Cmax), Human, ref Table S3 supplementary refs 20, 22, 25, 31) of the same compound?
Answer: 2200 nM

Question: And the “Plasma concentration (Cmax)” value ([3]; ref Table S3 supplementary ref 29)?
Answer: 2410 ng/mL

Question: What about the Cmax ([3]; ref Table S3 supplementary refs 21, 29) of the same compound?
Answer: 5200 nM

Question: And the Brain availability [4, 19]?
Answer: confirmed

Question: What about the IC50 [5, 20] of the same compound?
Answer: 0.56 ± 0.03 µM

Question: What does the source list for COc1ccc(C[C@H]2NC[C@H](O)[C@H]2OC(C)=O)cc1 [(-)-Anisomycin]?
Answer: Proliferation index (%) ([6]; 62.5 nM, 24 h of treatment): 60.56%; Proliferation index (%) ([6]; 125 nM, 24 h of treatment): 22.63%; Effect on T. gondii ultrastructure (TEM) (T. gondii tachyzoites [7]; 100 nM, 48 h): alteration of the ER architecture; IC50 [8, 21]: 0.02 µM; IC50 ([8]; read-out: IC50 against T. gondii proliferation, RH strain): ≤ 0.03 µM; IC50 (T. gondii tachyzoites [9]; 48 h of treatment, ref Fichera, Bhopale, and Ross (1995) [43]): 10 nM; Plasma concentration (Cmax) ([3]; ref Table S3 supplementary refs 3, 10, 12, 21): 2.75 ng/mL; Does it cross the blood-brain barrier or is found in the brain? [10]: Yes; Brain availability [4, 19]: confirmed; PVs with parasites with aberrant division (T. gondii tachyzoites [11]; 62.5 nM, IMC1 and DAPI labeling): 22.5%; Effect on tachyzoite morphology and cell division (fluorescence microscopy) (T. gondii tachyzoites [11]): complete arrestment of cell division

Question: Which results are given for CO[C@@H]1[C@H](N(C)C(=O)c2ccccc2)C[C@H]2O[C@]1(C)n1c3ccccc3c3c4c(c5c6ccccc6n2c5c31)C(=O)NC4 [Midostaurin]?
Answer: activity at […] [6, 22]: 23.1%; activity at 0.5 µM [6, 22]: 24.3%; activity at 1 µM [6, 23]: 24.9%; Effect on T. gondii ultrastructure (TEM) (T. gondii tachyzoites [7]; 250 µM as printed, 48 h): drastic effects on the parasite ultrastructure; Plasma concentration (Cmax) [2, 18]: 1210 ng/mL; Cmax [2, 24]: 2120 nM; Oral bioavailability [12]: > 90%; IC50 [5, 20]: 0.08 µM; CC50 at 7 days [13]: 240 ± 20 nM; Vacuoles with aberrant parasites (T. gondii tachyzoites [11]): more than 80%; Vacuoles with aberrant parasites (T. gondii tachyzoites [11]; listed as midostaurin): around 80%

Question: For Cc1cccc(/C=N/Nc2cc(N3CCOCC3)nc(OCCc3ccccn3)n2)c1 [Apilimod], which “Inhibition of parasite proliferation, in words” value ([6]; 0.5–1 µM, 24 h) is on record?
Answer: modest inhibition

Question: And the activity at 0.5 µM [6, 22]?
Answer: 99.7%

Question: And the activity at 1 µM [6, 23]?
Answer: 73.2%

Question: What about the CC50 at 7 days (in vitro) of the same compound?
Answer: 2120 ± 120 nM

Question: What about the selectivity ratio at 7 days (in vitro) of the same compound?
Answer: 10

Question: What about the Cmax ([14]; mouse, in vivo) of the same compound?
Answer: 2530 nM

Question: What about the “Does it cross the blood-brain barrier or is found in the brain?” value ([15]; mouse, in vivo) of the same compound?
Answer: Yes

Question: What about the Brain availability ([4]; in vivo) of the same compound?
Answer: confirmed

Question: And the IC50 [5, 20]?
Answer: 0.22 ± 0.06 µM

Question: For CNC(=O)c1cc(Oc2ccc(NC(=O)Nc3ccc(Cl)c(C(F)(F)F)c3)c(F)c2)ccn1 [Regorafenib], which CC50 at 7 days (in vitro) is on record?
Answer: 3030 ± 10 nM

Question: And the selectivity ratio at 7 days (in vitro)?
Answer: 12

Question: What about the Cmax ([2]; human, in vivo) of the same compound?
Answer: 3900 nM

Question: What about the “Plasma concentration (Cmax)” value ([2]; human, in vivo) of the same compound?
Answer: 1900 ng/mL

Question: What about the “Does it cross the blood-brain barrier or is found in the brain?” value [16] of the same compound?
Answer: Yes

Question: What about the Brain availability ([4]; in vivo) of the same compound?
Answer: confirmed

Question: What about the IC50 [5, 20] of the same compound?
Answer: 0.25 ± 0.04 µM

Question: Which “Does it cross the blood-brain barrier or is found in the brain?” value [17] does the source give for CCN1CCN(Cc2ccc(Nc3ncc(F)c(-c4cc(F)c5nc(C)n(C(C)C)c5c4)n3)nc2)CC1 [Abemaciclib] here?
Answer: Yes

Question: What about the “Plasma concentration (Cmax)” value [2, 18] of the same compound?
Answer: 492 ng/mL

Question: What about the Cmax [2, 24] of the same compound?
Answer: 971 nM

Question: And the Brain availability [4, 19]?
Answer: confirmed

Question: What about the IC50 [5, 25] of the same compound?
Answer: < 0.1 µM

Question: And the IC50 [5, 20]?
Answer: 0.09 ± 0.01 µM

Question: Which results are given for Nc1nc(Nc2ccc3c(c2)CC[C@@H](N2CCCC2)CC3)nn1-c1cc2c(nn1)-c1ccccc1CCC2 [Bemcentinib]?
Answer: CC50 at 7 days (in vitro): 970 ± 150 nM; selectivity ratio at 7 days (in vitro): 6; Cmax ([2]; human, in vivo): 105 nM; Plasma concentration (Cmax) ([2]; human, in vivo): 53 ng/mL; Does it cross the blood-brain barrier or is found in the brain? [16]: Yes; Brain availability ([4]; in vivo): confirmed; IC50 [5, 20]: 0.15 ± 0.03 µM

Question: Which results are given for C=CCNc1nc(NCC=C)nc(N2CCN(C(c3ccc(F)cc3)c3ccc(F)cc3)CC2)n1 [Almitrine]?
Answer: inhibition at 1 µM ([6]; Toxoplasma gondii, 1000 nM, 24 h, read-out: Inhibition of parasite proliferation): 55 to 60%; activity at 1 µM [6, 23]: 44.1%; Effect on T. gondii ultrastructure (TEM) (T. gondii tachyzoites [7]; 1 µM, 48 h): induced myelin-like structures; IC50 [8, 21]: 0.33 ± 0.04 µM; IC50 (T. gondii tachyzoites [9]; 72 h of treatment, ref [23],[24]): 420 nM and 320 nM; Effect on the number of cysts (T. gondii): reduced the number of cysts; Plasma concentration (Cmax) [2, 18]: 286.2 ng/mL; Cmax [2, 24]: 599 nM and ≤ 599 nM; Vacuoles containing tachyzoites with cell division alteration (T. gondii tachyzoites [11]; 1 µM, IMC1 and DAPI labeling): 23.9%

Question: With CC[C@@H](C(=O)[C@@H](C)[C@@H](O)[C@H](C)[C@@H]1O[C@@H]([C@@H](CC)C(=O)O)CC[C@@H]1C)[C@H]1O[C@]2(C=C[C@@H](O)[C@]3(CC[C@@](C)([C@H]4CC[C@](O)(CC)[C@H](C)O4)O3)O2)[C@H](C)C[C@@H]1C [Salinomycin] as the compound, how does the activity at 0.0312 µM ([6]; Toxoplasma gondii, 31.2 nM, 24 h of treatment, read-out: Proliferation index (%)) read?
Answer: 79.1%

Question: What about the activity at 0.0625 µM ([6]; Toxoplasma gondii, 62.5 nM, 24 h of treatment, read-out: Proliferation index (%)) of the same compound?
Answer: 21.9%

Question: And the activity at 0.125 µM ([6]; Toxoplasma gondii, 125 nM, 24 h of treatment, read-out: Proliferation index (%))?
Answer: 14.4%

Question: And the inhibition at […] ([6]; Toxoplasma gondii, 250 nM (0.25 µM), 24 h, read-out: Inhibition of parasite proliferation)?
Answer: > 90%

Question: What about the activity at […] [6, 22] of the same compound?
Answer: 6.38%

Question: What about the “Effect on T. gondii ultrastructure (TEM)” value (T. gondii tachyzoites [7]; 125 and 250 nM, 24 h) of the same compound?
Answer: extensive vacuolization process

Question: And the CC50 at 7 days (in vitro)?
Answer: 1140 ± 170 nM

Question: And the selectivity ratio at 7 days (in vitro)?
Answer: 16

Question: What about the “Plasma concentration (Cmax)” value ([3]; ref Table S3 supplementary refs 28, 32) of the same compound?
Answer: 40 ng/mL

Question: And the Cmax ([3]; ref Table S3 supplementary refs 3, 10, 12, 28, 32)?
Answer: 53.3 nM

Question: And the “Plasma concentration (Cmax)” value ([14]; Mice, ref Table S3 supplementary ref 27)?
Answer: 13.2 ng/mL

Question: What about the Cmax ([14]; read-out: Plasma concentration (Cmax), Mouse/Mice, ref Table S3 supplementary refs 16, 27) of the same compound?
Answer: 17.6 nM

Question: And the “Does it cross the blood-brain barrier or is found in the brain?” value ([15]; Mice/Mouse, ref Table S3 supplementary refs 6, 16, 24, 27, 33)?
Answer: Yes

Question: And the Brain availability [4, 19]?
Answer: confirmed

Question: What about the IC50 [5, 25] of the same compound?
Answer: < 0.1 µM

Question: And the IC50 [5, 20]?
Answer: 0.07 ± 0.01 µM

Question: What about the “Effect on tachyzoite morphology and cell division (fluorescence microscopy)” value (T. gondii tachyzoites [11]) of the same compound?
Answer: vacuoles containing fragmented parasites
